Data reported in article PMC8878107, “Human Enterovirus B: Selective Inhibition by Quinoxaline Derivatives and Bioinformatic RNA-Motif Identification as New Targets” (Pharmaceuticals, 2022).

Legend:
[1] = Cytotoxicity, MTT method, mock-infected Vero-76 cells; format: cell-based; details: African green monkey (Cercopithecus aethiops), concentration reducing viability of mock-infected Vero-76 cells by 50%, read-out: CC50 Vero76
Procedure: (§1) HeLa cells were seeded in 96-well plates at a density of 5 × 10^5 cells/mL, in minimum essential medium with Earle’s salts (MEM-E), L-glutamine, 1 mM sodium pyruvate, and 25 mg/L kanamycin, supplemented with 10% fetal bovine serum (FBS). Vero-76 and LLC-MK2 cells were seeded in 96-well plates at a density of 5 × 10^5 cells/mL in Dulbecco’s modified eagle medium (D-MEM) with L-glutamine and 25 mg/L kanamycin, complemented with 10% FBS. Cell cultures were then incubated in a humidified, 5% CO2 atmosphere at 37 °C, with or without serial dilutions of analyzed compounds. The medium used for the cytotoxic assay, as well as for antiviral assays, included 1% of the proper serum. Cell viability was determined after 72–120h at 37 °C by MTT method.
(§2) The size of cell growth/viability and viral multiplication at each tested drug concentration was expressed as percentage of untreated controls. Concentrations resulting in 50% inhibition (CC50 or EC50) were determined by linear regression analysis.

[2] = Cytotoxicity, MTT method, mock-infected HeLa cells; format: cell-based; details: human, concentration reducing viability of mock-infected HeLa cells by 50%
Procedure: as §1, §2

[3] = Cytotoxicity, MTT method, mock-infected LLC-MK2 cells; format: cell-based; details: rhesus monkey, concentration reducing viability of mock-infected LLC-MK2 cells by 50%
Procedure: as §1, §2

CVB4 [4] = assay: Plaque-reduction assay, CVB4 in Vero-76 cells; format: cell-based, human enterovirus B
Procedure: (§3) The activity of compounds against EV-A71 and D68 was based on inhibition of virus-induced cytopathogenicity in HeLa and Vero-76 cells, respectively, acutely infected at a multiplicity of infection (m.o.i.) of 0.01. After a 72 or 120 h incubation at 37 °C, cell viability was verified by the MTT method, as previously described. The activity of compounds against CVB3, CVB4, CVB5, and E9 was determined in infected cell monolayers by plaque-reduction assays, as previously reported. Briefly, the monolayer of Vero-76 cells or LLC-MK2 (E9) was grown overnight on a 24-well plate. The cells were then infected for 2 h with 250 μL of proper virus dilutions to obtain 50–100 PFU/well. Following removal of the unadsorbed virus, 500 μL of the medium (D-MEM with L-glutamine, 4500 mg/L D-glucose, and 1% inactivated FBS) containing 0.75% methyl-cellulose, with serial dilutions of quinoxalines, was added. The overlay was also added to untreated wells (non-infection controls). Cultures were incubated at 37 °C for 3 (CVB3, CVB4, CVB5) or 5 days (E9) and then fixed with PBS containing 50% ethanol and 0.8% crystal violet, washed and air-dried. Plaques were then counted.
as §2

CVB3 [5] = assay: Plaque-reduction assay, CVB3 in Vero-76 cells; format: cell-based, human enterovirus B
Procedure: as §3, §2

E9 [6] = assay: Plaque-reduction assay, E9 in LLC-MK2 cells; format: cell-based, human enterovirus B; details: Enterovirus B; for EC50: concentration reducing plaque number by 50%
Procedure: as §3, §2

EV-A71 = assay: Inhibition of EV-A71-induced cytopathogenicity, MTT method; format: cell-based, human enterovirus A71; details: Enterovirus A, EVA71, 96 h, 50% protection of Vero-76 cells from EV-A71-induced cytopathogenicity, day 4/5 p.i.
EV-D68 = assay: Inhibition of EV-D68-induced cytopathogenicity, MTT method; format: cell-based, human enterovirus D 68; details: Enterovirus D, EVD68, 72 h; HeLa cells, MTT method after 3 days p.i.
Procedure: as §3, with “After” for “The activity of compounds against EV-A71 and D68 was based on inhibition of virus-induced cytopathogenicity in HeLa and Vero-76 cells, respectively, acutely infected at a multiplicity of infection (m.o.i.) of 0.01. After”
as §2

CVB4 [7] = assay: Virus yield reduction assay (YRA), CVB4 in Vero-76 cells; format: cell-based, human enterovirus B; details: m.o.i. 0.1, 72 h
Procedure: (§4) Vero-76 and LL-MKC cells were inoculated with CVB3, CVB4, or E9 at an m.o.i. of 0.1 in maintenance medium and compounds at non-cytotoxic concentrations. After the adsorption period (2 h) at 37 °C and 5% CO2, the inoculum was removed and replaced with fresh medium containing the same concentration of compounds. After 72 h for CVB3 and CVB4 or 120 h for E9 at 37 °C and 5% CO2, each sample was collected and diluted with serial passages, starting from 10^−1, up to 10^−10. The titers of the supernatants were quantified by standard plaque assay. NM 107 (2’-C-Methyl-Cytidine) and pleconaril were employed as reference compounds.

CVB3 [8] = assay: Virus yield reduction assay (YRA), CVB3 in Vero-76 cells; format: cell-based, human enterovirus B; details: m.o.i. 0.1, 72 h; for Reduction of CVB3 viral titers (trend over concentrations): non-cytotoxic concentrations (100, 20, 4, 0.8 µM)
Procedure: as §4

CVB3 [9] = assay: Adsorption assay, CVB3 in Vero-76 cells; format: cell-based, human enterovirus B; details: 20 µM, 2 h at 4 °C, m.o.i. 0.1, Vero-76 cells
Procedure: (§5) Vero-76 cells were incubated with CVB3 and CVB4 (m.o.i. = 0.1) and derivatives 6 or 7 for 2 h at 4 °C, using compound concentrations of 20 µM. […] LLC-MK2 cells were incubated with E9 and derivative 8 (Figure 3e) under the above-described experimental conditions. To identify the replication stage inhibited by quinoxaline derivatives, we performed a time-of-drug addiction assay (T.O.A.) (Figure 3a–e). Experiments were carried out on CVB3-, CVB4-,and E9-infected cells (m.o.i. = 1) treated with compounds (20 µM) at different step times of infection until 12 h post-infection, followed by virus titer determination by plaque assay.
(§6) Vero-76 and LLC-MK2 cells grown in 24-well plates were infected with CVB3, CVB4, and E9, at an m.o.i. of 0.1, with or without test compounds, and incubated for 120 min at 4 °C. Medium containing unbound virus was then removed, and cells were washed twice with PBS and overlayed with fresh medium. Plaques were counted after 72 h of incubation at 37 °C.

CVB4 [10] = assay: Adsorption assay, CVB4 in Vero-76 cells; format: cell-based, human enterovirus B; details: 20 µM, 2 h at 4 °C, m.o.i. 0.1, Vero-76 cells
Procedure: as §5, §6

E9 [11] = assay: Virus yield reduction assay (YRA), E9 in LLC-MK2 cells; format: cell-based, human enterovirus B
Procedure: as §4

[12] = Enterovirus B, CVB4, Vero 76, concentration reducing plaque number by 50%
[13] = Enterovirus B, CVB3, Vero 76, concentration reducing plaque number by 50%
[14] = Enterovirus B, CVB4, Vero 76, concentration reducing plaque number by 90%
[15] = Enterovirus B, CVB3, Vero 76, concentration reducing plaque number by 90%
[16] = concentration reducing plaque number by 50%
[17] = concentration reducing plaque number by 90%

Row | Compound | EC50 (CVB4 [4]; [12]) [µM] | EC50 (CVB3 [5]; [13]) [µM] | EC50 (E9 [6]) [µM] | EC90 (CVB4 [4]; [14]) [µM] | EC90 (CVB3 [5]; [15]) [µM] | EC50 (CVB3 [5]; [16]) [µM] | CC50 [1] [µM] | CC50 [2] [µM] | CC50 [3] [µM] | EC50 (EV-A71) [µM] | EC50 (EV-D68) [µM] | Reduction of CVB3 viral titers (trend over concentrations) (CVB3 [8]) | CVB3 virus titer in comparison to the untreated infected control (CVB3 [9]) | CVB4 virus titer in comparison to the untreated infected control (CVB4 [10]) | other results
1 | CCOC(=O)c1ccc(SCc2ccc3nc(OC)c(OC)nc3c2)cc1 [Compound 6] | 1.7 | 2 to 3 | > 100 | 12 | 12 | 2.5 | > 100 | > 100 | > 100 | > 100 | > 100 | same trend of reduction in viral loads | detectable reduction of the virus titer | detectable reduction of the virus titer | EC90 (CVB3 [5]; [17]): 13 µM; Reduction of CVB4 viral titers (CVB4 [7]; 0.8 µM): 2 logs; Reduction of CVB4 viral titers (CVB4 [7]; 4 µM): 2.5 logs; Effect on CVB4 viral titers (CVB4 [7]; 100 and 20 µM): complete suppression
2 | C[C@@]1(O)[C@H](O)[C@@H](CO)O[C@H]1n1ccc(N)nc1=O [NM107, 2′-C-methylcytidine, reference compound] |  | 29 ± 3 |  |  |  |  | > 100 |  |  | 6 ± 1 |  |  |  |  | 
3 | COc1nc2ccc(CSc3ccc(C(=O)O)cc3)cc2nc1OC [Compound 7] | 1.5 | 2 to 3 | > 100 | 3 | 14 | 2 | 100 | 95 | 100 | > 100 | > 95 | dose-dependent reduction of viral titers | detectable reduction of the virus titer | detectable reduction of the virus titer | EC50 (CVB4 [4]; [16]): 1.45 µM; EC90 (CVB4 [4]; [17]): 3.2 µM; Inhibition of CVB4 (CVB4 [7]; 0.8 µM): no significant inhibition; Production of CVB4 virus (CVB4 [7]; 100, 20, and 4 µM): completely inhibited; Reduction in CVB3 viral load (CVB3 [8]; 4 µM): one log reduction in viral load

Further lines, with some results ahead:

Row | EC50 (CVB4 [4]; [12]) [µM] | EC50 (CVB3 [5]; [13]) [µM] | EC50 (E9 [6]) [µM] | EC90 (CVB4 [4]; [14]) [µM] | EC90 (CVB3 [5]; [15]) [µM] | EC50 (CVB3 [5]; [16]) [µM] | Compound | CC50 [1] [µM] | CC50 [2] [µM] | CC50 [3] [µM] | EC50 (EV-A71) [µM] | EC50 (EV-D68) [µM] | Reduction of CVB3 viral titers (trend over concentrations) (CVB3 [8]) | CVB3 virus titer in comparison to the untreated infected control (CVB3 [9]) | CVB4 virus titer in comparison to the untreated infected control (CVB4 [10]) | other results
4 | > 100 | 100 | 55 |  |  |  | COc1nc2ccc(CSc3ccc(C(=O)O)cn3)cc2nc1OC [Compound 9] | 100 | > 100 | 100 | > 100 | 70 |  |  |  | 
5 | 2 ± 1 |  | 0.1 ± 0.05 |  |  |  | Cc1cc(CCCOc2c(C)cc(-c3noc(C(F)(F)F)n3)cc2C)on1 [PLe, Pleconaril, reference compound] | > 100 | > 100 | > 100 |  | 0.4 ± 0.2 |  |  |  | 
6 | > 100 | > 100 | 6 |  |  |  | CCOC(=O)c1ccc(SCc2ccc3nc(OC)c(OC)nc3c2)nc1 [Compound 8] | > 100 | > 100 | > 100 | > 100 | 50 |  |  |  | EC90 (E9 [6]; [17]): 16 µM; Effect on E9 viral replication (E9 [11]; 100 and 20 µM, m.o.i. 0.1, 120 h): completely suppressed viral replication; Reduction in E9 viral loads (E9 [11]; lower concentrations (below 20 µM)): no reduction in viral loads
